In brackets after ≈: the same amount, converted by molar mass. Read-outs that look alike come from different tables or passages of the source.
How the values were obtained:
[1] = system: Clostridium perfringens (ATCC 13124)
[2] = system: Escherichia coli (ATCC 8739); assay type: cell-based
[3] = system: Pseudomonas aeruginosa (CIP 107398); assay type: cell-based
[4] = system: Bacillus subtilis (DSM 347); assay type: cell-based
[5] = system: Staphylococcus aureus (ATCC 6538P); assay type: cell-based
[6] = system: Enterococcus faecalis (DSM 13591); assay: microbe, parasite or virus in culture; assay type: cell-based
[7] = system: Candida albicans (DSM 10697); assay type: cell-based
[8] = system: Caco-2 cells (ATCC HTB-37); assay: cells; assay type: cell-based, human; conditions: read-out: IC50 (concentration causing 50% cell death)
T84 cells (ATCC CCL-248) = assay: cells; assay type: cell-based, human; conditions: read-out: IC50 (concentration causing 50% cell death)
IPEC-J2 cells = assay: cells; assay type: cell-based, pig; conditions: read-out: IC50 (concentration causing 50% cell death)
[9] = system: human (Caco-2 and T84) and pig (IPEC-J2) intestinal cells
[10] = system: Clostridium perfringens (ATCC 13124); assay type: cell-based; conditions: 5 times MIC, 2 hours, FM4-64FX and DAPI labelling

CCCCCCCCCC(=O)N[C@@H](Cc1c[nH]c2ccccc12)C(=O)N[C@H](CC(N)=O)C(=O)N[C@@H](CC(=O)O)C(=O)N[C@@H]1C(=O)NCC(=O)N[C@@H](CCCN)C(=O)N[C@@H](CC(=O)O)C(=O)N[C@H](C)C(=O)N[C@@H](CC(=O)O)C(=O)NCC(=O)N[C@H](CO)C(=O)N[C@@H]([C@H](C)CC(=O)O)C(=O)N[C@@H](CC(=O)c2ccccc2N)C(=O)O[C@@H]1C [Daptomycin]
MIC ([1]; ATCC 13124): 8 µM (≈ 13 µg/mL) | MIC (mg/L) ([1]; ATCC 13124): 12.96 mg/L (≈ 8 µM)

Enniatin A1
MIC [2]: >100 µM | MIC [3]: >100 µM | MIC [4]: 25 µM | MIC [5]: 25 µM | MIC [6]: 6.25 µM | MIC [7]: 3.125 µM | IC50 [8]: 3.1 µM | IC50 (T84 cells (ATCC CCL-248)): 4.5 µM | IC50 (IPEC-J2 cells): 5.1 µM | MIC [1]: 6.25 µM | MIC (mg/L) [1]: 4.16 mg/L | toxicity to intestinal cells [9]: toxic

O=C(N[C@H](CO)[C@H](O)c1ccc([N+](=O)[O-])cc1)C(Cl)Cl [Chloramphenicol]
morphological phenotype (mechanism of action) [10]: hypercondensation of bacterial DNA

— patent US20220133842A1 (priority 2019, published 2022)
